What was measured:
[1] = target: T1, AHR (Homo sapiens, UniProt P35869); test: DRE-Luciferase Reporter Assay, HepG2 (agonist); assay type: cell-based; conditions: HepG2, Table 3; read-out: DRE-Luc HepG2 - Agonist: Average EC50
T1 construct: endogenous in cells; host or cells: HepG2 (human), transfected with a DRE-luciferase reporter only
T1 sequence (P35869 11-848): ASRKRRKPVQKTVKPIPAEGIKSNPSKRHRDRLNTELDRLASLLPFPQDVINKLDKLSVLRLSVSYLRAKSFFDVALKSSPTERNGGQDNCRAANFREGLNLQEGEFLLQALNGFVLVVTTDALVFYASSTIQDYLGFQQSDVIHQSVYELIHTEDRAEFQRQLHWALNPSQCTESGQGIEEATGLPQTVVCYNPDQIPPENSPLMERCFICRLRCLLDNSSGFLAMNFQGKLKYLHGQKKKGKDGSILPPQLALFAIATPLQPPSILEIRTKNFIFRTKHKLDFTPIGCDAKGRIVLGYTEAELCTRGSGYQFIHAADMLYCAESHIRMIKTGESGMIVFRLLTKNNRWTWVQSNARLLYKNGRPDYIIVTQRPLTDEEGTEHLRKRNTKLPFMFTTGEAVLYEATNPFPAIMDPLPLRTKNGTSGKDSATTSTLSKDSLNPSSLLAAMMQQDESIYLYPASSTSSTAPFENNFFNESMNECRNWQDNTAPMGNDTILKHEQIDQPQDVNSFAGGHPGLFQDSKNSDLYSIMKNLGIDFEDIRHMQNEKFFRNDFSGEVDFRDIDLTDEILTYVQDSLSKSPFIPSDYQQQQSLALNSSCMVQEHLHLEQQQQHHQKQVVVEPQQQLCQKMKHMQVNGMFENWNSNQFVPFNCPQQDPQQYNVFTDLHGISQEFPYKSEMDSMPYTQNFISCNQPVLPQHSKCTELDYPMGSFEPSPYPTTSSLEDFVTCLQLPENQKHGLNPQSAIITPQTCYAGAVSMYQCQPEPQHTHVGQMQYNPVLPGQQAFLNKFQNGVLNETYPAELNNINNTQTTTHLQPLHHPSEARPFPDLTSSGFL
Summary of the method: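 Cells carrying a stably or transiently transfected DRE-luciferase reporter, plated overnight at 37 C, then given agonist for 6, 16 or 24 h before lysis and luciferase read-out. Signal scaled between no ligand (minimum) and activating ligand alone, e.g. TCDD (maximum); EC50 = concentration giving half-maximal luciferase activity.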

[2] = target: T2, AHR (Mus musculus, UniProt P30561); test: DRE-Luciferase Reporter Assay, Hepa1.6 (agonist); assay type: cell-based, murine; conditions: Hepa1.6, Table 3; read-out: DRE-Luc Hepa1.6 - Agonist: Average EC50
T2 sequence (P30561 1-848 F348L/P471L): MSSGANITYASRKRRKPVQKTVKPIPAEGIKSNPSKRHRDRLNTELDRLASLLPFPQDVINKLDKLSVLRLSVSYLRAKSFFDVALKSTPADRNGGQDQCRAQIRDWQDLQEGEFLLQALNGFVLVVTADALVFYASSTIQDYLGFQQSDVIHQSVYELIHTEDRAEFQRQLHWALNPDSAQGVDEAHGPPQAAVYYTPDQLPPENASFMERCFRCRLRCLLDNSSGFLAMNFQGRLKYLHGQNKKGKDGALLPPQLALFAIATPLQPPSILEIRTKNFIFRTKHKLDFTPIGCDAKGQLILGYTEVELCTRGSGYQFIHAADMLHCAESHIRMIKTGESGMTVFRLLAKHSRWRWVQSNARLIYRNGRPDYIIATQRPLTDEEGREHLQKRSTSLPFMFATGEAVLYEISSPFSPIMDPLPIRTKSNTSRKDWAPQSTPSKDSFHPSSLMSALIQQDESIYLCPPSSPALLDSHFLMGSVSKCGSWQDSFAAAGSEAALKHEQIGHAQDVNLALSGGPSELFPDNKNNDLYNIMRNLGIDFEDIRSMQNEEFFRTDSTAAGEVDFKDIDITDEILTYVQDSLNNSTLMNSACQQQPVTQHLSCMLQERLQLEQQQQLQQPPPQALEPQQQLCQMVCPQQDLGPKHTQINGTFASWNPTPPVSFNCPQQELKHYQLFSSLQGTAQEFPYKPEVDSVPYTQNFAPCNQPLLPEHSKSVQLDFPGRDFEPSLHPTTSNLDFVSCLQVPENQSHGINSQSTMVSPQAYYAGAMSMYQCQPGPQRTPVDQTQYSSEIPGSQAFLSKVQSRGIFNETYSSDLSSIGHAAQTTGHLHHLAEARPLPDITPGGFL
Method: DRE-Luciferase Reporter Assay
AHR binds to Dioxin Responsive Elements (DRE) upstream of genes that it activates. One measure of AHR activity is activation of a reporter gene, such as luciferase, downstream of one or multiple DRE elements. Luciferase activity reflects activation and inhibition of AHR in the cells expressing this reporter.
Murine Hepa1-6 or Hepa-1c1c7 or other murine cell line with a DRE-luciferase reporter either stably or transiently transfected are plated in media in plates (96-well, 384-well or other plates) and incubated overnight at 37 C in a CO2 incubator. Likewise, human HepG2 or other human cell line with a DRE-luciferase reporter either stably or transiently transfected are plated in media in plates (96-well, 384-well or other plates) and incubated overnight at 37 C in a CO2 incubator.
The next day, an AHR agonist compound is added. Cells are incubated for 6, 16 or 24 hours or another time point and then lysed for determination of luciferase activity as a read-out of the AHR activation. Luciferase can be measured with a commercial kit such as the Promega Luciferase kit or any kit or reagents that provide the luciferin substrate for measuring luciferase activity. The level of luciferase with only activating ligand (e.g. such as TCDD, kynurenine, ITE (2-(1H-indole-3-ylcarbonyl)-4-thiazolecarboxylic methyl ester), VAF347, BNF (beta-naphthoflavone), ICZ (6-formylindolo(3,2-b) carbazole or other AHR ligands) added is the maximum signal while the luciferase with no ligand is the minimum signal. EC50s can be determined as the concentration which activates half of the maximum luciferase activity.

Row | Compound | EC50 [1] [nM] | EC50 [2] [nM]
1 | O=[N+]([O-])c1cccc(-c2csc(Nc3cccc(C(F)(F)F)n3)n2)c1 [I-89] | < 10 | > 1000
2 | O=c1cc(-c2csc(Nc3cccc(C(F)(F)F)c3)n2)cc[nH]1 [I-93] | < 10 | > 1000
3 | OCc1cccc(-c2csc(Nc3cccc(C(F)(F)F)c3)n2)c1 [I-125] | 10 to 100 | > 1000
4 | CN(C)c1cc(-c2csc(Nc3cccc(C(F)(F)F)c3)n2)ccn1 [I-153] | 10 to 100 | > 1000
5 | N#Cc1cccc(-c2csc(Nc3cncc(C(F)(F)F)c3)n2)c1 [I-97] | < 10 | 10 to 100
6 | N#Cc1cccc(-c2nsc(Nc3cccc(C(F)(F)F)c3)n2)c1 [I-109] | < 10 | > 1000
7 | COc1cc(-n2cnc(Nc3cccc(C(F)(F)F)c3)n2)ccn1 [I-143] | 100 to 1000 | > 1000
8 | C[N+](C)(C)CCOc1cc(-c2csc(Nc3cccc(C(F)(F)F)c3)n2)ccn1 [I-149] | 100 to 1000 | 100 to 1000
9 | O=c1ccc(-c2csc(Nc3cccc(C(F)(F)F)c3)n2)c[nH]1 [I-83] | < 10 | 100 to 1000
10 | N#Cc1cncc(-c2csc(Nc3cccc(C(F)(F)F)c3)n2)c1 [I-87] | < 10 | > 1000
11 | N#Cc1cccc(-c2nc(Nc3cccc(C(F)(F)F)c3)no2)c1 [I-152] | > 1000 | > 1000
12 | N#Cc1cc(-c2csc(Nc3cccc(C(F)(F)F)c3)n2)c[n+]([O-])c1 [I-100] | < 10 | > 1000
13 | NC(=O)c1cccc(Nc2nc(-c3ccc[n+]([O-])c3)cs2)c1 [I-147] | 100 to 1000 | > 1000
14 | CSc1cccc(Nc2nc(-c3cccc([N+](=O)[O-])c3)cs2)c1 [I-136] | < 10 | 100 to 1000
15 | C[n+]1cccc(-c2csc(Nc3cccc(C(F)(F)F)c3)n2)c1 [I-92] | < 10 | 100 to 1000
16 | N#Cc1cccc(-c2cnc(Nc3cccc(C(F)(F)F)c3)o2)c1 [I-112] | < 10 | > 1000
17 | [O-][n+]1cc(Cl)cc(-c2csc(Nc3cccc(C(F)(F)F)c3)n2)c1 [I-107] | < 10 | > 1000
18 | C[N+](C)(CCNC(=O)N(c1cccc(C(F)(F)F)c1)c1nc(-c2cccc([N+](=O)[O-])c2)cs1)CCNC(=O)N(c1cccc(C(F)(F)F)c1)c1nc(-c2cccc([N+](=O)[O-])c2)cs1 [I-148] | 10 to 100 | 100 to 1000
19 | [O-][n+]1cccc(-c2csc(Nc3cccc(C(F)(F)F)n3)n2)c1 [I-121] | < 10 | > 1000
20 | [O-][n+]1cccc(-c2nsc(Nc3cccc(C(F)(F)F)c3)n2)c1 [I-117] | < 10 | > 1000
21 | N#Cc1cccc(-c2csc(Nc3cccc(C(F)(F)F)n3)n2)c1 [I-90] | < 10 | > 1000
22 | O=c1cc(-n2cnc(Nc3cccc(C(F)(F)F)c3)n2)cc[nH]1 [I-144] | 10 to 100 | > 1000
23 | N#Cc1cccc(-n2cnc(Nc3cccc(C(F)(F)F)c3)n2)c1 [I-145] | < 10 | > 1000
24 | O=c1cccc(-c2csc(Nc3cccc(C(F)(F)F)c3)n2)[nH]1 [I-130] | < 10 | < 10
25 | FC(F)(F)c1cccc(Nc2nc(-c3cncc(Cl)c3)cs2)c1 [I-91] | < 10 | 10 to 100
26 | O=[N+]([O-])c1cc(-c2csc(Nc3cccc(C(F)(F)F)c3)n2)c[n+]([O-])c1 [I-120] | < 10 | 100 to 1000

The remaining lines, values ahead:

Row | EC50 [1] [nM] | EC50 [2] [nM] | Compound
27 | 10 to 100 | < 10 | Nc1ccccc1-c1csc(Nc2cccc(C(F)(F)F)c2)n1 [I-177]
28 | 10 to 100 | 10 to 100 | O=C(Nc1cncc(-c2csc(Nc3cccc(C(F)(F)F)c3)n2)c1)Nc1cncc(-c2csc(Nc3cccc(C(F)(F)F)c3)n2)c1 [I-170]
29 | 100 to 1000 | 100 to 1000 | O=C(O)c1cccc(/N=N/c2cc(-c3csc(Nc4cccc(C(F)(F)F)c4)n3)ccc2F)c1 [I-173]
30 | 100 to 1000 | > 1000 | N#Cc1cccc(-c2noc(Nc3cccc(C(F)(F)F)c3)n2)c1 [I-157]
31 | < 10 | > 1000 | COC(=O)COc1cc(-c2csc(Nc3cccc(C(F)(F)F)c3)n2)ccn1 [I-160]
32 | < 10 | < 10 | Nc1cc(-c2csc(Nc3cccc(C(F)(F)F)c3)n2)c(F)cc1F [I-165]
33 | 10 to 100 | > 1000 | [O-][n+]1cccc(-n2cnc(Nc3cccc(C(F)(F)F)c3)n2)c1 [I-158]
34 | < 10 | 10 to 100 | CNc1cc(-c2csc(Nc3cccc(C(F)(F)F)c3)n2)ccn1 [I-154]
35 | < 10 | < 10 | Nc1ccc(F)c(-c2csc(Nc3cccc(C(F)(F)F)c3)n2)c1 [I-166]
36 | < 10 | < 10 | Nc1cc(-c2csc(Nc3cccc(C(F)(F)F)c3)n2)ccn1 [I-156]
37 | < 10 | < 10 | Nc1cc(-c2csc(Nc3cccc(C(F)(F)F)c3)n2)ccc1F [I-163]
38 | 100 to 1000 | > 1000 | O=C(O)c1cc(/N=N/c2ccc(F)c(-c3csc(Nc4cccc(C(F)(F)F)c4)n3)c2)ccc1O [I-179]
39 | 100 to 1000 | 100 to 1000 | Fc1ccc(/N=N/c2ccc(F)c(-c3csc(Nc4cccc(C(F)(F)F)c4)n3)c2)cc1-c1csc(Nc2cccc(C(F)(F)F)c2)n1 [I-169]
40 | 10 to 100 | > 1000 | Nc1ccccc1-c1csc(Nc2ccccc2C(F)(F)F)n1 [I-172]
41 | > 1000 | > 1000 | O=C(O)c1cc(/N=N/c2cccc(-c3csc(Nc4cccc(C(F)(F)F)c4)n3)c2)ccc1O [I-162]
42 | 100 to 1000 | 100 to 1000 | FC(F)(F)c1cccc(Nc2nc(-c3cncc(NNc4cncc(-c5csc(Nc6cccc(C(F)(F)F)c6)n5)c4)c3)cs2)c1 [I-175]
43 | > 1000 | > 1000 | O=C(O)c1cc(/N=N/c2cc(-c3csc(Nc4cccc(C(F)(F)F)c4)n3)ccc2F)ccc1O [I-178]
44 | 100 to 1000 | 100 to 1000 | COC(=O)/C(C)=N/Nc1cccc(-c2csc(Nc3cccc(C(F)(F)F)c3)n2)c1 [I-167]
45 | > 1000 | > 1000 | Nc1ccnc(-c2csc(Nc3cccc(C(F)(F)F)c3)n2)c1 [I-168]

Source: patent publication US12030876B2, “Aryl hydrocarbon receptor (AHR) agonists and uses thereof” (Ikena Oncology, Inc., priority 2019, dated 2024)
